One block for each compound: values may come before it.
Experiment: solvent given as SMILES
[1] = in O=P(c1ccccc1)(c1ccccc1)c1ccccc1Oc1ccccc1P(=O)(c1ccccc1)c1ccccc1

emission maximum (in ClCCl): 563 nm
SMILES: CCCC1=C(CCC)c2cccc3c2c(cc2nc4ccccc4nc23)O1

emission maximum (in CS(C)=O): 412 nm
SMILES: Cc1cccc(-c2nc3sc4ccccc4c3s2)c1

emission maximum (in CN(C)C=O): 410 nm
SMILES: Brc1ccc2[nH]c(-c3ccc(-c4ccc(-c5ccc(-c6nc7cc(Br)ccc7[nH]6)cc5)cc4)cc3)nc2c1

emission maximum (in ClCCl): 664 nm
SMILES: F[B-]1(F)n2c(c3ccccc3c2-c2ccccc2)C(c2ccccc2)=C2c3ccccc3C(c3ccccc3)=[N+]21

emission maximum (in ClCCl): 421 nm
SMILES: C(S/C=C/c1ccc(/C=C/SC=C2CCCCC2)cc1)=C1CCCCC1

SMILES: COc1ccc2c(c1)[nH]c1c3[nH]c4cc(OC)ccc4c3c3nsnc3c21
emission maximum (in CN(C)C=O): 544 nm
emission maximum (in Cc1ccccc1): 501 nm
emission maximum (in ClCCl): 540 nm

emission maximum (in CC#N): 418 nm
SMILES: COc1ccccc1-n1nc(C#N)c(N2CCCC2)n1

SMILES: CCn1c2ccccc2c2cc(/C=C/C(=O)c3ccc4c(c3)c3cc(C(=O)/C=C/c5ccc6c(c5)c5ccccc5n6CC)ccc3n4CC)ccc21
emission maximum (in C1CCCCC1): 430 nm
emission maximum (in C1CCOC1): 474 nm
emission maximum (in CC#N): 491 nm
emission maximum (in CC(C)=O): 476 nm
emission maximum (in CCO): 521 nm
emission maximum (in CCOCC): 475 nm
emission maximum (in CN(C)C=O): 487 nm
emission maximum (in CO): 542 nm
emission maximum (in CS(C)=O): 493 nm
emission maximum (in ClC(Cl)(Cl)Cl): 454 nm
emission maximum (in ClC(Cl)Cl): 475 nm

SMILES: C(#Cc1ccc(N(c2ccc(C#Cc3ccc(-c4cc(-c5ccccc5)nc(-c5ccccc5)c4)cc3)cc2)c2ccc(C#Cc3ccc(-c4cc(-c5ccccc5)nc(-c5ccccc5)c4)cc3)cc2)cc1)c1ccc(-c2cc(-c3ccccc3)nc(-c3ccccc3)c2)cc1
emission maximum (in C1CCOC1): 455 nm
emission maximum (in Cc1ccccc1): 426 nm

SMILES: c1ccc(-c2nc(-c3ccccc3)nc(-c3ccc(-n4c5ccccc5c5cc(-n6c7ccccc7c7ccccc76)ccc54)cc3)n2)cc1
emission maximum (in Cc1ccccc1): 458 nm
emission maximum [1]: 475 nm

SMILES: CCN1c2ccc(/C=N/Nc3ccccn3)cc2Sc2cc(/C=N/Nc3ccccn3)ccc21
emission maximum (in C1CCOC1): 495 nm
emission maximum (in CS(C)=O): 507 nm
emission maximum (in Cc1ccccc1): 491 nm
emission maximum (in ClCCl): 498 nm

emission maximum (in ClCCl): 425 nm
SMILES: CCOC(=O)c1c(-c2cc3ccc(OCC=C(C)C)cc3oc2=O)nn(-c2ccccc2)c1C(=O)OCC

emission maximum (in ClCCl): 620 nm
SMILES: CCCCCCCCCCCCN1C(=O)c2c(c3ccc4cc(-c5ccc(N(C)C)cc5)c(OC)cc4c3c3c2ccc2cc(-c4ccc(N(C)C)cc4)c(OC)cc23)C1=O

emission maximum (in CC(=O)N(C)C): 716 nm
SMILES: CC(C)(C)c1cc(/C2=C3\C=CC(=N3)/C(c3ccc(Br)cc3)=c3/cc/c([nH]3)=C(\c3ccc(Br)cc3)C3=N/C(=C(/c4cc(C(C)(C)C)cc(C(C)(C)C)c4)c4cc2c[nH]4)C=C3)cc(C(C)(C)C)c1

SMILES: CC(C)(C)c1ccc2c(c1)c1cc(C(C)(C)C)ccc1n2-c1ccccc1-c1nc(-c2ccccc2P(=O)(c2ccccc2)c2ccccc2)nc(-c2ccccc2P(=O)(c2ccccc2)c2ccccc2)n1
emission maximum (in C1CCOC1): 515.1 nm
emission maximum (in CC#N): 548.81 nm
emission maximum (in CC(C)=O): 532.75 nm
emission maximum (in CN(C)C=O): 539.75 nm
emission maximum (in Cc1ccccc1): 498.41 nm
emission maximum (in ClC(Cl)Cl): 511.13 nm
emission maximum (in ClCCl): 526.23 nm
emission maximum [1]: 504 nm

emission maximum (in ClC(Cl)Cl): 504 nm
SMILES: O=C1NC(=O)c2ccc(N3CCOCC3)c3cccc1c23
